Data reported in patent US10233182B2, “Substituted spirocyclic inhibitors of autotaxin” (X-Rx, Inc., priority 2014, dated 2019).
pIC50: −log10 of the molar value. Structures can show the parent of a compound that is named as a salt.

Target: Autotaxin (Homo sapiens (Human), UniProt Q13822)
Test: Autotaxin LPC Cascade Assay
Format: biochemical
Conditions: Autotaxin 5 nM, LPC 100 μM, choline oxidase/HRP/Ampliflu Red fluorescence read-out, 2% DMSO, RT; read-out: IC50 ATX Activity
Protocol: Autotaxin LPC Cascade Assay:
HA130 and Test Compounds:
Prepare a 1 mM stock of HA130 and a 3 mM stock of each compound in 100% DMSO. Perform a 1:3 serial dilution in DMSO (transfer 5 l of compound to 10 l of DMSO). Add 240 l of buffer to generate a top working concentration of 40 µM (HA130) and 120 µM (test compound) in 4% DMSO.
Ampliflu Red—Prepare a stock of 5 mM from 100 mM in 100% DMSO. Further dilute to a working concentration of 400 μM in buffer (8% DMSO).
Together with compound this yields a 2% DMSO final concentration.
Choline Oxidase/HRP—0.8 U/mL CO and 8 U/mL HRP.
Incubate for 10 mins at RT. Add 5 µl of LPC and incubate for 1 hr on the plate shaker. Prepare the CO/HRP and AR immediately prior to use. Add 2.5 l of CO/HRP and follow with 2.5 l AR. Note order of addition, CO/HRP mix before AR. Read fluorescence intensity (ex/em: 530/590 nm) kinetically for 30 min at RT on the Tecan M1000.

In the case of `CN1CN(c2ccc(=O)n(C)c2)C2(CCN(C(=O)[C@H](NC(=O)c3cc(C(F)(F)F)ccc3F)C3CCCC3)CC2)C1=O` [Example 208, (R)—N-(1-Cyclopentyl-2-(3-methyl-1-(1-methyl-6-oxo-1,6-dihydropyridin-3-yl)-4-oxo-1,3,8-triazaspiro[4.5]decan-8-yl)-2-oxoethyl)-2-fluoro-5-(trifluoromethyl)benzamide], the pIC50 was > 6.30.
For `CC(C)[C@@H](NC(=O)c1cc(C(F)(F)F)ccc1F)C(=O)N1CCC2(CC1)C(=O)N(C)C(=O)N2Cc1ccc2nccnc2c1` [Example 100, (R)-2-Fluoro-N-(3-methyl-1-(3-methyl-2,4-dioxo-1-(quinoxalin-6-ylmethyl)-1,3,8-triazaspiro[4.5]decan-8-yl)-1-oxobutan-2-yl)-5-(trifluoromethyl)benzamide], the pIC50 was > 6.30.
In the case of `COc1cccc(N2CN(C)C(=O)C23CCN(C(=O)[C@H](NC(=O)c2cccc(C)c2)C(C)C)CC3)c1` [Example 198, (R)—N-(1-(1-(3-Methoxyphenyl)-3-methyl-4-oxo-1,3,8-triazaspiro[4.5]decan-8-yl)-3-methyl-1-oxobutan-2-yl)-3-methylbenzamide], the pIC50 was > 6.30.
For `CC(C)[C@@H](NC(=O)c1cc(C(F)(F)F)ccc1F)C(=O)N1CCC2(CC1)C(=O)N(C)C(=O)N2Cc1ccc2c(c1)OCCO2` [Example 96, (R)—N-(1-(1-((2,3-Dihydrobenzo[b][1,4]dioxin-6-yl)methyl)-3-methyl-2,4-dioxo-1,3,8-triazaspiro[4.5]decan-8-yl)-3-methyl-1-oxobutan-2-yl)-2-fluoro-5-(trifluoromethyl)benzamide], the pIC50 was > 6.30.
For `CC(C)[C@@H](NC(=O)c1cc(C(F)(F)F)ccc1F)C(=O)N1CCC2(CC1)C(=O)N(C)C(=O)N2c1ccc2nn(C)cc2c1` [Example 13, (R)-2-Fluoro-N-(3-methyl-1-(3-methyl-1-(2-methyl-2H-indazol-5-yl)-2,4-dioxo-1,3,8-triazaspiro[4.5]decan-8-yl)-1-oxobutan-2-yl)-5-(trifluoromethyl)benzamide], the pIC50 was > 6.30.
With `CC(C)[C@@H](NC(=O)c1cc(C(F)(F)F)ccc1F)C(=O)N1CCC2(CC1)C(=O)N(C)C(=O)N2Cc1cnn(C)c1` [Example 115, (R)-2-Fluoro-N-(3-methyl-1-(3-methyl-1-((1-methyl-1H-pyrazol-4-yl)methyl)-2,4-dioxo-1,3,8-triazaspiro[4.5]decan-8-yl)-1-oxobutan-2-yl)-5-(trifluoromethyl)benzamide] the pIC50 was ≤ 6.00.
`Cc1nc2ccc(N3C(=O)N(C)C(=O)C34CCN(C(=O)[C@H](NC(=O)c3cc(C(F)(F)F)ccc3F)C(C)C)CC4)cc2[nH]1` [Example 19, (R)-2-Fluoro-N-(3-methyl-1-(3-methyl-1-(2-methyl-1H-benzo[d]imidazol-6-yl)-2,4-dioxo-1,3,8-triazaspiro[4.5]decan-8-yl)-1-oxobutan-2-yl)-5-(trifluoromethyl)benzamide trifluoroacetic Acid Salt] was tested, and the pIC50 was ≤ 6.00.
For `CC(C)[C@@H](NC(=O)c1cccc(C(F)(F)F)c1)C(=O)N1CCC2(CC1)C(=O)N(C)C(=O)N2c1ccccc1` [Example 33, (R)—N-(3-Methyl-1-(3-methyl-2,4-dioxo-1-phenyl-1,3,8-triazaspiro[4.5]decan-8-yl)-1-oxobutan-2-yl)-3-(trifluoromethyl)benzamide], the pIC50 was 6.00 to 6.30.
With `CN1C(=O)N(Cc2ccc3nccnc3c2)C2(CCN(C(=O)[C@H](NC(=O)c3cc(C(F)(F)F)ccc3F)C3CCCC3)CC2)C1=O` [Example 112, (R)—N-(1-Cyclopentyl-2-(3-methyl-2,4-dioxo-1-(quinoxalin-6-ylmethyl)-1,3,8-triazaspiro[4.5]decan-8-yl)-2-oxoethyl)-2-fluoro-5-(trifluoromethyl)benzamide] the pIC50 was > 6.30.
With `CCc1ccc(F)c(C(=O)N[C@@H](C(=O)N2CCC3(CC2)C(=O)N(CC#N)C(=O)N3c2ccc(OC)cc2)C(C)C)c1` [Example 5, (R)—N-(1-(3-(Cyanomethyl)-1-(4-methoxyphenyl)-2,4-dioxo-1,3,8-triazaspiro[4.5]decan-8-yl)-3-methyl-1-oxobutan-2-yl)-5-ethyl-2-fluorobenzamide] the pIC50 was > 6.30.
For `C[C@@H](NC(=O)c1cc(C(F)(F)F)ccc1F)C(=O)N1CCC2(CC1)C(=O)N(C)C(=O)N2c1ccc2[nH]ncc2c1` [Example 72, (R)—N-(1-(1-(1H-Indazol-5-yl)-3-methyl-2,4-dioxo-1,3,8-triazaspiro[4.5]decan-8-yl)-1-oxopropan-2-yl)-2-fluoro-5-(trifluoromethyl)benzamide], the pIC50 was ≤ 6.00.
Molecule `Cc1cccc(C(=O)N[C@@H](C(=O)N2CCC3(CC2)C(=O)N(C)CN3c2ccccc2)C2CCOCC2)c1` (single isomer, unassigned) [Example 129] has a pIC50 of 6.00 to 6.30.
`CN1CN(c2ccc(C(=O)O)cc2)C2(CCN(C(=O)[C@H](NC(=O)c3cc(C(F)(F)F)ccc3F)C(C)(C)C)CC2)C1=O` [Example 159] was tested, and the pIC50 was ≤ 6.00.
For `CC(C)[C@@H](NC(=O)c1cc(C(F)(F)F)ccc1F)C(=O)N1CCC2(CC1)C(=O)N(CCN(C)C)C(=O)N2c1ccc(C(=O)O)cc1` [Example 237, (R)-4-(3-(2-(Dimethylamino)ethyl)-8-(2-(2-fluoro-5-(trifluoromethyl)benzamido)-3-methylbutanoyl)-2,4-dioxo-1,3,8-triazaspiro[4.5]decan-1-yl)benzoic Acid trifluoroacetic Acid Salt], the pIC50 was > 6.30.
`Cc1cccc(C(=O)N[C@@H](C(=O)N2CCC3(CC2)C(=O)N(C)CN3c2cccc(Br)c2)C(C)C)c1` [Example 194, (R)—N-(1-(1-(3-Bromophenyl)-3-methyl-4-oxo-1,3,8-triazaspiro[4.5]decan-8-yl)-3-methyl-1-oxobutan-2-yl)-3-methylbenzamide] was tested, and the pIC50 was > 6.30.
Molecule `CC(C)[C@@H](NC(=O)c1cc(C(F)(F)F)ccc1F)C(=O)N1CCC2(CC1)C(=O)N(C)C(=O)N2CC1CCOCC1` [Example 79, (R)-2-Fluoro-N-(3-methyl-1-(3-methyl-2,4-dioxo-1-((tetrahydro-2H-pyran-4-yl)methyl)-1,3,8-triazaspiro[4.5]decan-8-yl)-1-oxobutan-2-yl)-5-(trifluoromethyl)benzamide] has a pIC50 of 6.00 to 6.30.
`CC(C)[C@@H](NC(=O)c1cc(C(F)(F)F)ccc1F)C(=O)N1CCC2(CC1)C(=O)N(C)C(=O)N2c1cccc(S(C)(=O)=O)c1` [Example 15, (R)-2-Fluoro-N-(3-methyl-1-(3-methyl-1-(3-(methylsulfonyl)phenyl)-2,4-dioxo-1,3,8-triazaspiro[4.5]decan-8-yl)-1-oxobutan-2-yl)-5-(trifluoromethyl)benzamide] was tested, and the pIC50 was ≤ 6.00.
In the case of `CC(C)[C@@H](NC(=O)c1cc(C(F)(F)F)ccc1F)C(=O)N1CCC2(CC1)C(=O)N(C)C(=O)N2c1ccc(OCC2COC2)cc1` [Example 83, (R)-2-Fluoro-N-(3-methyl-1-(3-methyl-1-(4-(oxetan-3-ylmethoxy)phenyl)-2,4-dioxo-1,3,8-triazaspiro[4.5]decan-8-yl)-1-oxobutan-2-yl)-5-(trifluoromethyl)benzamide], the pIC50 was > 6.30.
`CC(C)[C@@H](NC(=O)c1cc(C(F)(F)F)ccc1F)C(=O)N1CCC2(CC1)C(=O)N(C)C(=O)N2C1CCOCC1` [Example 77, (R)-2-Fluoro-N-(3-methyl-1-(3-methyl-2,4-dioxo-1-(tetrahydro-2H-pyran-4-yl)-1,3,8-triazaspiro[4.5]decan-8-yl)-1-oxobutan-2-yl)-5-(trifluoromethyl)benzamide] was tested, and the pIC50 was 6.00 to 6.30.
With `COc1ccc(N2CN(C)C(=O)C23CCN(C(=O)[C@H](NC(=O)c2cccc(C)c2)C(C)C)CC3)cc1` [Example 197, (R)—N-(1-(1-(4-Methoxyphenyl)-3-methyl-4-oxo-1,3,8-triazaspiro[4.5]decan-8-yl)-3-methyl-1-oxobutan-2-yl)-3-methylbenzamide] the pIC50 was > 6.30.
For `CC(C)[C@@H](NC(=O)c1cc(OC(F)(F)F)ccc1F)C(=O)N1CCC2(CC1)C(=O)N(C)C(=O)N2c1ccc(C(=O)O)cc1` [Example 167, (R)-4-(8-(2-(2-Fluoro-5-(trifluoromethoxy)benzamido)-3-methylbutanoyl)-3-methyl-2,4-dioxo-1,3,8-triazaspiro[4.5]decan-1-yl)benzoic Acid], the pIC50 was > 6.30.
`CC(C)[C@@H](NC(=O)c1cc(C(F)(F)F)ccc1F)C(=O)N1CCC2(CC1)C(=O)N(C)C(=O)N2c1ccc2ocnc2c1` [Example 245, (R)—N-(1-(1-(Benzo[d]oxazol-5-yl)-3-methyl-2,4-dioxo-1,3,8-triazaspiro[4.5]decan-8-yl)-3-methyl-1-oxobutan-2-yl)-2-fluoro-5-(trifluoromethyl)benzamide] was tested, and the pIC50 was > 6.30.
For `CN1C(=O)N(c2ccc(=O)n(C)c2)C2(CCN(C(=O)[C@H](NC(=O)c3cc(C(F)(F)F)ccc3F)C3CCCC3)CC2)C1=O` [Example 24, (R)—N-(1-Cyclopentyl-2-(3-methyl-1-(1-methyl-6-oxo-1,6-dihydropyridin-3-yl)-2,4-dioxo-1,3,8-triazaspiro[4.5]decan-8-yl)-2-oxoethyl)-2-fluoro-5-(trifluoromethyl)benzamide], the pIC50 was > 6.30.
`Cc1ccc(F)c(C(=O)N[C@@H](C(=O)N2CCC3(CC2)C(=O)N(C)C(=O)N3c2ccc3[nH]ncc3c2)C(C)C)c1` [Example 56, (R)—N-(1-(1-(1H-Indazol-5-yl)-3-methyl-2,4-dioxo-1,3,8-triazaspiro[4.5]decan-8-yl)-3-methyl-1-oxobutan-2-yl)-2-fluoro-5-methylbenzamide] was tested, and the pIC50 was > 6.30.
